Biological target: T1, estrus urinary lipocalin protein (EULP)
T1 construct: gene PMP2; native, purified from female rat urine by Sephadex G-50 gel filtration; printed peptides MSNKFL, KFLGTWKLT, KLTSSENFD, NFDEYMKAL, LGTRSLGNL, LAGPTVIIS, ITIRTESGF, GFKNTEISF, FEETTADNR, RKTKSTVTL, KSTVTLAGG, NGNETTIKR, SVVCTRIYE
Test: fluorescence binding of 2-naphthol probe
Design: species or system Rattus rattus
Settings: 10 mM phosphate buffer pH 7.2, room temperature; fluorescent probe

- Kd: 420 ± 60 nM
SMILES: Oc1ccc2ccccc2c1 [2-naphthol]
